This is an account of results in publication PMC5343914, “Phytochemical Analysis of Agrimonia pilosa Ledeb, Its Antioxidant Activity and Aldose Reductase Inhibitory Potential” (International Journal of Molecular Sciences, 2017).

One may read the IC50 as the midpoint of a concentration-inhibition curve. The term inhibition denotes the drop in the measured response relative to a control, in per cent.

Read-outs that look alike come from different tables or passages of the source.

Assay [1] concerns sorbitol accumulation in rat lenses. As to the kind of experiment: Lens culture and intracellular sorbitol measurement (ex vivo). The note with it: compound 5.0 μg/mL; for Inhibition (%) of sorbitol accumulation in rat lens: isolated rat lens ex vivo; for Sorbitol Content (mg)/Lens Wet Weight (g): isolated rat lens, 30 mM glucose medium, 6 d. On the procedure: Lenses isolated from 10-week-old Sprague–Dawley rats using the registration number mentioned in the section of 4.5 were cultured for 6 d in TC-199 medium that contained 15% fetal bovine serum, 100 units/mL penicillin, and 0.1 mg/mL streptomycin, under sterile conditions and an atmosphere of 5% CO2 and 95% air at 37 °C. Samples were dissolved in DMSO. The lenses were divided into three groups and cultured in medium containing 30 mM glucose and RLAR-active compounds. Each lens was placed in a well containing 2.0 mL of medium. Sorbitol was determined by HPLC using the methods mentioned in the section of 4.7 after its derivatization by reaction with benzoic acid to a fluorescent compound [42].

The nature of assay [2]: DPPH free radical scavenging capacity. As to the method:
The stable free radical was used to determine the free radical-scavenging activity of the extracts. Briefly, a 0.32 mM solution of DPPH in MeOH was prepared, and 180 µL of this solution was mixed with 30 µL of each sample at concentrations of 0.05–1.0 mg/mL in DMSO. After 20 min of incubation in the darkroom, the decrease in the absorbance of the solution was measured at 570 nm on a microplate reader (EL800 Universal Microplate reader, Bio-Tek instruments, Winooski, VT, USA). DPPH inhibitory activity was expressed as the percentage inhibition (%) of DPPH in the aforementioned assay system, and was calculated as [1 − (Asample − Ablank/Acontrol − Ablank)] × 100%, where Acontrol is the absorbance of DPPH solution (180 µL) with methanol (30 µL); Ablank is the absorbance of distilled water (180 µL) with methanol (30 µL); Asample is the absorbance of DPPH solution (180 µL) with sample solution (30 µL).
(In general: DPPH is a stable violet radical that fades when it is reduced.)

Assay [3] deals with T1, rat lens aldose reductase (RLAR) (Rattus norvegicus, UniProt P07943).
T1 construct: The supernatant was collected and used as the RLAR; from tissue; host or cells: Sprague–Dawley rat lens homogenate, 10,000 x g supernatant
The assay is described as follows: Determination of RLAR inhibition in vitro (NADPH decrease at 340 nm, DL-glyceraldehyde substrate).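 On all read-outs here: crude enzyme from Sprague–Dawley rat lens homogenate supernatant, absorbance read over 3 min in pH 6.2 potassium phosphate buffer with 1.6 mM NADPH and 25 mM substrate.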 Also on record: inhibition: dose or concentration left out as unconfirmed. The note with it: for IC50: Experiments. Type of assay: biochemical.
Description: Crude RLAR was prepared as follows: lenses weighing 250–280 g were removed from Sprague–Dawley rats and frozen at −70 °C until use. […] Non-cataractous transparent lenses were pooled and a homogenate was prepared in 0.1 M phosphate-buffered saline (pH 6.2). RLAR homogenate was then centrifuged at 10,000× g for 20 min at 4 °C in a refrigerated centrifuge. The supernatant was collected and used as the RLAR. All procedures were carried out at 4 °C [37].
RLAR activity was assayed spectrophotometrically by measuring the decrease in the absorption of NADPH at 340 nm over a 3-min period using DL-glyceraldehyde as the substrate. Each 1.0 mL cuvette contained equal units of the enzyme, 0.10 M potassium phosphate buffer (pH 6.2), 1.6 mM NADPH, 25 mM DL-glyceraldehyde (the substrate), and an inhibitor or dimethyl sulfoxide (DMSO).

Assay [4] addresses T2, recombinant human aldose reductase (RHAR) (Homo sapiens, UniProt P15121).
T2 construct: purchased Wako Pure Chemical Industries (Osaka, Japan)
The assay is described as follows: Determination of inhibition type of RHAR (Lineweaver-Burk plots). The note with it: DL-glyceraldehyde 1.0 to 25.0 mM. Type of assay: biochemical.
Description: Reaction mixtures consisted of 0.1 M potassium phosphate, 1.6 mM NADPH, and 2 mM of RHAR with varied concentrations of substrate DL-glyceraldehyde and AR inhibitor in a total volume of 600 μL. […] RHAR activity was assayed by measuring the decrease in absorption of NADPH after substrate addition at 340 nm using a Bio Tek Power Wave XS spectrophotometer (Bio Tek Instruments, Winooski, VT, USA) [41].

Assay [5] is described as follows: Offline DPPH HPLC assay of the n-BuOH fraction (peak area reduction). The note with it: n-BuOH fraction 20 mg/mL mixed with […] DPPH, 20 min, HPLC 254 nm. As to the method: The sample was analyzed using an Agilent Technologies modular model 1200 system with a vacuum degasser (G1322A), a quaternary pump (G1311A), an auto-sampler (G1329A), a thermo-statted column compartment (G1316A), and a variable wavelength detector (VWD, G1314D) system. The separation was achieved on an Eclipse XDB-phenyl column (150 mm × 4.6 mm, 3.5 μm) maintained at 30 °C. The elution solvents were 0.1% trifluoroacetic acid (A) and MeOH (B) with the following gradient: 20%–30% B (0–3 min), 30%–40% B (3–10 min), 40%–50% B (10–20 min), 50%–60% B […], 60%–100% B (25–35 min), 100%–100% B (35–38 min), 100%–20% B (38–40 min), and 20%–20% B (40–45 min). Injection volume was 10 µL (sample concentration: 1 mg/mL) and UV wavelength was 254 nm.
The offline DPPH HPLC assay was performed by modifying a previously-described protocol. Thirty microliters (20 mg/mL in MeOH) of the n-BuOH fraction from APE were mixed with 180 μL prepared DPPH solution (0.32 mM). The mixture was incubated in the dark for 20 min, then filtered through a 0.45-μm filter for HPLC analysis. The n-BuOH (20 mg/mL in MeOH) was used as a control. The extent of peak decrease is expressed as a quantitative reduction.

Assay [6] has as its target T1, rat lens aldose reductase (RLAR). As to conditions: literature value; read-out: RLAR IC50 (References); cited from earlier work.

For `O=C(OC1OC2COC(=O)c3cc(O)c(O)c(O)c3-c3c(cc(O)c(O)c3O)C(=O)OC2C2OC(=O)c3cc(O)c(O)c(O)c3-c3c(cc(O)c(O)c3O)C(=O)OC12)c1cc(O)c(O)c(Oc2c(C(=O)OC3OC4COC(=O)c5cc(O)c(O)c(O)c5-c5c(cc(O)c(O)c5O)C(=O)OC4C4OC(=O)c5cc(O)c(O)c(O)c5-c5c(cc(O)c(O)c5O)C(=O)OC34)cc(O)c(O)c2O)c1` (stereo not shown) [Agrimoniin (AM), agrimoniin], in assay [1], the “Inhibition (%) of sorbitol accumulation in rat lens” value came to 47.6 ± 1.34% and the “Sorbitol Content (mg)/Lens Wet Weight (g)” value was determined as 0.77 ± 0.02 mg/g. In assay [2], this molecule returned an IC50 of 13 ± 0.06 µM. For the same molecule, the IC50 in assay [3] worked out at 1.6 ± 0.12 µM. Besides, the Inhibition type entry in assay [4] is “Noncompetitive”.

As for `O=C(O)[C@H]1O[C@@H](Oc2cc(O)c3c(=O)cc(-c4ccc(O)c(O)c4)oc3c2)[C@H](O)[C@@H](O)[C@@H]1O` [Luteolin-7-O-glucuronide (LGN), luteolin-7-O-glucuronide], in assay [1], the “Inhibition (%) of sorbitol accumulation in rat lens” value was 91.8 ± 9.01%. Also, in assay [1], the “Sorbitol Content (mg)/Lens Wet Weight (g)” value stood at 0.12 ± 0.01 mg/g. The “peak area reduction (PAR)” value in assay [5] is recorded as “lower than 20.0%”. Besides, the results for the concentration for half-maximal inhibition (IC50) in assay [2], in assay [3] and in assay [6] were 80.6 ± 0.38 µM, 0.7 ± 0.54 µM and 3.1 µM, respectively. In assay [3] (Table 2, printed under head DPPH/Experiments), this molecule returned an inhibition of 83.3 ± 0.88%. Also, the Inhibition type entry in assay [4] was “Noncompetitive”.
